The compounds below were run against T1, CD80-CD28 interaction (Homo sapiens, UniProt P33681) (assay: Homogenous Time Resolved Fluorescence (HTRF) assay, cell free). Conditions: cell free HTRF assay; concentration series 100 μM-1.7 nM; 4 hours at room temperature; read-out: Activity (EC50 in the HTRF assay).
T1 sequence (P33681 35-242 limits assumed): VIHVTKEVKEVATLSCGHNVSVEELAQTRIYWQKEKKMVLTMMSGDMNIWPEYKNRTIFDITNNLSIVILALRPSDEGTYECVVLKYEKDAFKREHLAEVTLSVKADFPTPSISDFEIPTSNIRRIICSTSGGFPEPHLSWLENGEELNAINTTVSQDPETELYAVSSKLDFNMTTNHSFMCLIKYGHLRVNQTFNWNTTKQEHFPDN
Assay type: binding
Procedure, shortened: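 In pH7.8 Tris-HCl/NaCl buffer with 0.1% BSA, a 100 μM-1.7 nM compound series was incubated for 4 h at room temperature with CD28 and CD80 fusions carrying europium and APC via linker antibodies. Time-resolved signals at 665 and 615 nm were read after 340 nm excitation; a C215 Fab swap defined background. EC50 given as banded classes.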
`CCC(CC)CNC(=O)Nc1ccc(-n2[nH]c3c(nnc4ccccc43)c2=O)cc1` [Example 221] showed an EC50 greater than 10 µM.
`CC(=O)NCCCCNC(=O)Nc1ccc(-n2[nH]c3c(nnc4ccccc43)c2=O)cc1` [Example 222] was tested, and the EC50 was less than 1 µM.
`CC(C)(C)OC(=O)CCNC(=O)Nc1ccc(-n2[nH]c3c(nnc4ccccc43)c2=O)cc1` [Example 223] gave an EC50 of 1 to 10 µM.
For `O=C(NCCN1CCC(Cc2ccccc2)CC1)Nc1ccc(-n2[nH]c3c(nnc4ccccc43)c2=O)cc1` [Example 224], the EC50 was less than 1 µM.
With `COc1ccc(OCCNC(=O)Nc2ccc(-n3[nH]c4c(nnc5ccccc54)c3=O)cc2)cc1` [Example 225] the EC50 was greater than 10 µM.
In the case of `O=C(Nc1ccc(-n2[nH]c3c(nnc4ccccc43)c2=O)cc1)NC1Cc2ccccc2C1` [Example 226], the EC50 is reported as greater than 10 µM.
`O=C(NCCSc1cc(C(F)(F)F)nc2ccccc12)Nc1ccc(-n2[nH]c3c(nnc4ccccc43)c2=O)cc1` [Example 227] gave an EC50 greater than 10 µM.
For `O=C(NCCCCN1CCCC1)Nc1ccc(-n2[nH]c3c(nnc4ccccc43)c2=O)cc1` [Example 228], the EC50 was less than 1 µM.
With `O=C(NCCCN1CCCC1)Nc1ccc(-n2[nH]c3c(nnc4ccccc43)c2=O)cc1` [Example 229] the EC50 was less than 1 µM.
With `CN(C)CCCNC(=O)c1ccc(-n2[nH]c3c(nnc4c(F)cccc43)c2=O)cc1` [Example 232] the EC50 was less than 1 µM.
`CN1C(C)(C)CC(NC(=O)c2ccc(-n3[nH]c4c(nnc5c(F)cccc54)c3=O)cc2)CC1(C)C` [Example 234] was tested, and the EC50 was less than 1 µM.
Compound `COc1ccc(CNC(=O)c2ccc(-n3[nH]c4c(nnc5ccccc54)c3=O)cc2)c(OC)c1` [Example 236] has an EC50 greater than 10 µM.
For `CN(C)c1ccc(CNC(=O)c2ccc(-n3[nH]c4c(nnc5ccccc54)c3=O)cc2)cc1` [Example 237], the EC50 was less than 1 µM.
With `O=C(NCC1CCCO1)c1ccc(-n2[nH]c3c(nnc4ccccc43)c2=O)cc1` (stereo not shown) [Example 238] the EC50 was 1 to 10 µM.
For `O=C(NC1CCC1)c1ccc(-n2[nH]c3c(nnc4ccccc43)c2=O)cc1` [Example 239], the EC50 was 1 to 10 µM.
With `COc1ccc(CNC(=O)c2ccc(-n3[nH]c4c(nnc5ccccc54)c3=O)cc2)cc1` [Example 240] the EC50 was less than 1 µM.
`CCCCNC(=O)c1ccc(-n2[nH]c3c(nnc4ccccc43)c2=O)cc1` [Example 241] gave an EC50 of 1 to 10 µM.
With `O=C(NCc1ccco1)c1ccc(-n2[nH]c3c(nnc4ccccc43)c2=O)cc1` [Example 242] the EC50 was less than 1 µM.
`CC(C)NC(=O)c1ccc(-n2[nH]c3c(nnc4ccccc43)c2=O)cc1` [Example 243] showed an EC50 of less than 1 µM.
`O=C(NCC1CCCCC1)c1ccc(-n2[nH]c3c(nnc4ccccc43)c2=O)cc1` [Example 244] gave an EC50 of 1 to 10 µM.
`CCCCCCCNC(=O)c1ccc(-n2[nH]c3c(nnc4ccccc43)c2=O)cc1` [Example 245] was tested, and the EC50 was 1 to 10 µM.
Compound `C=CCNC(=O)c1ccc(-n2[nH]c3c(nnc4ccccc43)c2=O)cc1` [Example 246] has an EC50 of less than 1 µM.
With `COCCCNC(=O)c1ccc(-n2[nH]c3c(nnc4ccccc43)c2=O)cc1` [Example 247] the EC50 was less than 1 µM.
Compound `O=C(NCc1cccc(C(F)(F)F)c1)c1ccc(-n2[nH]c3c(nnc4ccccc43)c2=O)cc1` [Example 248] has an EC50 greater than 10 µM.
In the case of `O=C(NCc1cccc(F)c1)c1ccc(-n2[nH]c3c(nnc4ccccc43)c2=O)cc1` [Example 250], the EC50 is reported as less than 1 µM.
`CCCCCNC(=O)c1ccc(-n2[nH]c3c(nnc4ccccc43)c2=O)cc1` [Example 251] showed an EC50 greater than 10 µM.
With `O=C(NC1CCc2ccccc21)c1ccc(-n2[nH]c3c(nnc4ccccc43)c2=O)cc1` (stereo not shown) [Example 252] the EC50 was greater than 10 µM.
`O=C(NCCSCc1c(F)cccc1Cl)c1ccc(-n2[nH]c3c(nnc4ccccc43)c2=O)cc1` [Example 254] was tested, and the EC50 was greater than 10 µM.
Compound `O=C(NCCc1cccs1)c1ccc(-n2[nH]c3c(nnc4ccccc43)c2=O)cc1` [Example 255] has an EC50 greater than 10 µM.
`O=C(NCC1CCNCC1)c1ccc(-n2[nH]c3c(nnc4ccccc43)c2=O)cc1` [Example 256] showed an EC50 of 1 to 10 µM.
In the case of `CCC(C)NC(=O)c1ccc(-n2[nH]c3c(nnc4ccccc43)c2=O)cc1` (stereo not shown) [Example 258], the EC50 is reported as 1 to 10 µM.
In the case of `O=C(NCCN1CCCC1)c1ccc(-n2[nH]c3c(nnc4ccccc43)c2=O)cc1` [Example 259], the EC50 is reported as less than 1 µM.
Work on `CC(C)CNC(=O)c1ccc(-n2[nH]c3c(nnc4ccccc43)c2=O)cc1` [Example 260] yielded an EC50 of 1 to 10 µM.
With `CC(NC(=O)Nc1ccc(-n2[nH]c3c(nnc4ccccc43)c2=O)cc1)C1CCCCC1` (stereo not shown) [Example 261] the EC50 was greater than 10 µM.
Work on `CC(NC(=O)Nc1ccc(-n2[nH]c3c(nnc4ccccc43)c2=O)cc1)C(C)(C)C` (stereo not shown) [Example 262] yielded an EC50 greater than 10 µM.
In the case of `CC(C)C(C)NC(=O)Nc1ccc(-n2[nH]c3c(nnc4ccccc43)c2=O)cc1` (stereo not shown) [Example 263], the EC50 is reported as 1 to 10 µM.
With `CC(C)(C)OC(=O)N1CCC(CNC(=O)Nc2ccc(-n3[nH]c4c(nnc5ccccc54)c3=O)cc2)CC1` [Example 264] the EC50 was greater than 10 µM.
`CN(CCNC(=O)Nc1ccc(-n2[nH]c3c(nnc4ccccc43)c2=O)cc1)C(=O)OC(C)(C)C` [Example 265] showed an EC50 greater than 10 µM.
`O=C(NCCCCNC(=O)c1ccc(-n2[nH]c3c(nnc4ccccc43)c2=O)cc1)OCc1ccccc1` [Example 266] showed an EC50 of less than 1 µM.
In the case of `O=C(NC1CONC1=O)c1ccc(-n2[nH]c3c(nnc4ccccc43)c2=O)cc1` (stereo not shown) [Example 267], the EC50 is reported as 1 to 10 µM.
Compound `O=C(NCCc1c[nH]c2ccccc12)c1ccc(-n2[nH]c3c(nnc4ccccc43)c2=O)cc1` [Example 268] has an EC50 of 1 to 10 µM.
`CCCNCCNC(=O)c1ccc(-n2[nH]c3c(nnc4ccccc43)c2=O)cc1` [Example 269] showed an EC50 greater than 10 µM.
For `O=C(NCCc1ccccc1)c1ccc(-n2[nH]c3c(nnc4ccccc43)c2=O)cc1` [Example 270], the EC50 was greater than 10 µM.
With `NCCCCCCNC(=O)c1ccc(-n2[nH]c3c(nnc4ccccc43)c2=O)cc1` [Example 271] the EC50 was less than 1 µM.
Work on `O=C(NCCC1=CCCCC1)c1ccc(-n2[nH]c3c(nnc4ccccc43)c2=O)cc1` [Example 272] yielded an EC50 greater than 10 µM.
Work on `CCCCCCCCCCCCOCCCNC(=O)c1ccc(-n2[nH]c3c(nnc4ccccc43)c2=O)cc1` [Example 273] yielded an EC50 greater than 10 µM.
With `CSCCCNC(=O)c1ccc(-n2[nH]c3c(nnc4ccccc43)c2=O)cc1` [Example 274] the EC50 was less than 1 µM.
In the case of `CCOC(=O)C1CCCC1NC(=O)c1ccc(-n2[nH]c3c(nnc4ccccc43)c2=O)cc1` (stereo not shown) [Example 275], the EC50 is reported as 1 to 10 µM.

Same assay, conditions: cell-free HTRF, compound concentration series 100 μM-1.7 nM, 4 hours at room temperature; read-out: Activity (EC50 in the HTRF assay)
`O=C(NCCc1ccccn1)Nc1ccc(-n2[nH]c3c(nnc4ccccc43)c2=O)cc1` [Example 196] showed an EC50 of 1 to 10 µM.
`O=C(Nc1ccc(-n2[nH]c3c(nnc4ccccc43)c2=O)cc1)NC1CCCN(Cc2ccccc2)C1` (stereo not shown) [Example 197] gave an EC50 of 1 to 10 µM.
In the case of `O=C(NCC1CCCO1)Nc1ccc(-n2[nH]c3c(nnc4ccccc43)c2=O)cc1` (stereo not shown) [Example 198], the EC50 is reported as 1 to 10 µM.
`O=C(Nc1ccc(-n2[nH]c3c(nnc4ccccc43)c2=O)cc1)NC1CC2CCC1C2` (stereo not shown) [Example 199] gave an EC50 greater than 10 µM.
In the case of `O=C(NCCSCc1ccccc1)Nc1ccc(-n2[nH]c3c(nnc4ccccc43)c2=O)cc1` [Example 200], the EC50 is reported as greater than 10 µM.
Compound `CC1C(NC(=O)Nc2ccc(-n3[nH]c4c(nnc5ccccc54)c3=O)cc2)CC2CC1C2(C)C` (stereo not shown) [Example 201] has an EC50 greater than 10 µM.
Compound `CC1C(NC(=O)Nc2ccc(-n3[nH]c4c(nnc5ccccc54)c3=O)cc2)CC2CC1C2(C)C` (stereo not shown) [Example 202] has an EC50 greater than 10 µM.
Work on `CCCC(C)NC(=O)Nc1ccc(-n2[nH]c3c(nnc4ccccc43)c2=O)cc1` (stereo not shown) [Example 203] yielded an EC50 greater than 10 µM.
For `O=C(NCC1CCCCCC1)Nc1ccc(-n2[nH]c3c(nnc4ccccc43)c2=O)cc1` [Example 204], the EC50 was greater than 10 µM.
Compound `CC(C)(C)OC(=O)CNC(=O)Nc1ccc(-n2[nH]c3c(nnc4ccccc43)c2=O)cc1` [Example 205] has an EC50 greater than 10 µM.
`CCCCN(CCCC)CCNC(=O)Nc1ccc(-n2[nH]c3c(nnc4ccccc43)c2=O)cc1` [Example 206] gave an EC50 of less than 1 µM.
For `CCCCC(C)NC(=O)Nc1ccc(-n2[nH]c3c(nnc4ccccc43)c2=O)cc1` (stereo not shown) [Example 207], the EC50 was 1 to 10 µM.
With `O=C(NCCOc1ccccc1)Nc1ccc(-n2[nH]c3c(nnc4ccccc43)c2=O)cc1` [Example 208] the EC50 was 1 to 10 µM.
`C=C(C)C(=O)OCCNC(=O)Nc1ccc(-n2[nH]c3c(nnc4ccccc43)c2=O)cc1` [Example 209] gave an EC50 greater than 10 µM.
In the case of `COCC(C)NC(=O)Nc1ccc(-n2[nH]c3c(nnc4ccccc43)c2=O)cc1` (stereo not shown) [Example 210], the EC50 is reported as less than 1 µM.
For `O=C(Nc1ccc(-n2[nH]c3c(nnc4ccccc43)c2=O)cc1)NC1CCCC1OCc1ccccc1` (stereo not shown) [Example 211], the EC50 was greater than 10 µM.
For `O=C(Nc1ccc(-n2[nH]c3c(nnc4ccccc43)c2=O)cc1)NC1CCCCC1OCc1ccccc1` (stereo not shown) [Example 212], the EC50 was greater than 10 µM.
Compound `CC(C)(C)OC(=O)NCCCNC(=O)Nc1ccc(-n2[nH]c3c(nnc4ccccc43)c2=O)cc1` [Example 213] has an EC50 of 1 to 10 µM.
For `O=C(Nc1ccc(-n2[nH]c3c(nnc4ccccc43)c2=O)cc1)NC1CCN(Cc2ccccc2)C1` (stereo not shown) [Example 214], the EC50 was less than 1 µM.
In the case of `CCCCOC(=O)CNC(=O)Nc1ccc(-n2[nH]c3c(nnc4ccccc43)c2=O)cc1` [Example 215], the EC50 is reported as greater than 10 µM.
Work on `CCCCCOC(=O)CNC(=O)Nc1ccc(-n2[nH]c3c(nnc4ccccc43)c2=O)cc1` [Example 216] yielded an EC50 greater than 10 µM.
`O=C(NCCc1cccnc1)Nc1ccc(-n2[nH]c3c(nnc4ccccc43)c2=O)cc1` [Example 217] was tested, and the EC50 was 1 to 10 µM.
For `CC(C)CCC(C)NC(=O)Nc1ccc(-n2[nH]c3c(nnc4ccccc43)c2=O)cc1` (stereo not shown) [Example 218], the EC50 was greater than 10 µM.
For `O=C(NCCCCCNC(=O)OCc1ccccc1)Nc1ccc(-n2[nH]c3c(nnc4ccccc43)c2=O)cc1` [Example 219], the EC50 was 1 to 10 µM.
With `CC(C)(C)OC(=O)NCCCCNC(=O)Nc1ccc(-n2[nH]c3c(nnc4ccccc43)c2=O)cc1` [Example 220] the EC50 was greater than 10 µM.
